Measurements as given in patent US12178878B2, “Amyloid peptide scaffolds coordinate with Alzheimer's disease drugs” (The University of Massachusetts, priority 2018, dated 2024).
Where two headings read alike, the source gives them in different places.

Key:
Format in all cases: binding
[1] = system: […] (SEQ ID NO: 3) amyloid peptide; test: Coordination at higher peptide concentration (amyloid gel, 5 mg/mL), inhibitor capturing; conditions: for capturing efficiency: relative to 2nd pellet wash, UV-Vis; for AD compound captured, Wash 1 / AD compound captured, Wash 2 / AD compound captured, Wash 3: 1000 μM inhibitor solution added; for AD compound captured, Wash 1: 1st pellet wash; for AD compound captured, Wash 2: 2nd pellet wash; for AD compound captured, Wash 3: 3rd pellet wash
Description: Amyloid Fibrils Preparation and Characterization. For the formation of fibrils, the amyloid peptides were dispersed in DI water at a 10 mg/ml, vortexed, heated at 60° C. for 30 sec, and sonicated for 15 mins (this cycle was repeated 10 times overall), and finally left overnight at room temperature to form a hydrogel. […] That was confirmed with Field Emission Scanning Electron Microscopy (FESEM) and Congo Red staining (CR).
Coordination Studies at Higher Peptide Concentrations and Inhibitor Capturing. […] (SEQ ID NO: 4) or […] (SEQ ID NO: 3) amyloid peptide gels (10 mg/mL, 1 mL volume) and was left to physically complex under stirring overnight (the final peptide concentration was diluted to 5 mg/mL). A control using 1 mL of 0.1 M PBS (no inhibitor) was also prepared. The complexed amyloid/inhibitor materials were then transferred to 5 mL conical Eppendorf tubes, and centrifuged for 15 mins at 4,400 rpm (14° C.). The supernatant was decanted, and 2 mL of DI water were subsequently added to wash the pellet (followed by vortexing until obtaining a homogenous dispersion) in order to remove any unbound inhibitor. The samples were then centrifuged again at the same conditions so as to pelletize the amyloid materials, and the supernatant was decanted. Another 2 mL of DI water were then added into the pellet, the mixture was vortexed, and the physically bound inhibitor into the amyloid peptides was quantified by UV-Vis between 200-600 nm and MS. This step is denoted as wash 1 in our study. Two additional pellet purification cycles were realized with replacement of the decanted volume each time with 2 mL of fresh DI water (denoted as wash 2 and wash 3 respectively). The inhibitor-containing amyloid peptides were normalized at 400 nm over the respective no inhibitor-containing ones at the specific washing step.

[2] = system: […] (SEQ ID NO: 4) amyloid peptide; conditions: for capturing efficiency: relative to 2nd pellet wash, UV-Vis; for AD compound captured, Wash 1 / AD compound captured, Wash 2 / AD compound captured, Wash 3: 1000 μM inhibitor solution added; for AD compound captured, Wash 1: 1st pellet wash; for AD compound captured, Wash 2: 2nd pellet wash; for AD compound captured, Wash 2 / AD compound captured, Wash 3: room temperature; for AD compound captured, Wash 3: 3rd pellet wash
Description: Amyloid Fibrils Preparation and Characterization. For the formation of fibrils, the amyloid peptides were dispersed in DI water at a 10 mg/ml, vortexed, heated at 60° C. for 30 sec, and sonicated for 15 mins (this cycle was repeated 10 times overall), and finally left overnight at room temperature to form a hydrogel.
A control using 1 mL of 0.1 M PBS (no inhibitor) was also prepared. The complexed amyloid/inhibitor materials were then transferred to 5 mL conical Eppendorf tubes, and centrifuged for 15 mins at 4,400 rpm (14° C.). The supernatant was decanted, and 2 mL of DI water were subsequently added to wash the pellet (followed by vortexing until obtaining a homogenous dispersion) in order to remove any unbound inhibitor. The samples were then centrifuged again at the same conditions so as to pelletize the amyloid materials, and the supernatant was decanted. Another 2 mL of DI water were then added into the pellet, the mixture was vortexed, and the physically bound inhibitor into the amyloid peptides was quantified by UV-Vis between 200-600 nm and MS. This step is denoted as wash 1 in our study. Two additional pellet purification cycles were realized with replacement of the decanted volume each time with 2 mL of fresh DI water (denoted as wash 2 and wash 3 respectively). The inhibitor-containing amyloid peptides were normalized at 400 nm over the respective no inhibitor-containing ones at the specific washing step.

[3] = system: […] (SEQ ID NO: 3) amyloid peptide; test: Amyloid peptide/inhibitor coordination in dilute solution (1 mg/mL), drug captured after pellet washings; conditions: for AD compound captured, Wash 1 / AD compound captured, Wash 2 / AD compound captured, Wash 3: 150 μM inhibitor loaded; for AD compound captured, Wash 1: 1st pellet wash; for AD compound captured, Wash 2: 2nd pellet wash; for AD compound captured, Wash 3: 3rd pellet wash; for fraction of the 150 μM loaded drug incorporated into the peptide: UV-Vis, first wash
Description: Amyloid Peptide/Inhibitor Coordination Studies in Dilute Solutions. […] Subsequently, 1 mL of DI water was added to wash the pellet (followed by vortexing until obtaining a homogenous dispersion) in order to remove any unbound inhibitor. The samples were then centrifuged again at the same conditions so as to pelletize the amyloid materials, and the supernatant was decanted. Another 1 mL of DI water was then added into the pellet, the mixture was vortexed, and the physically bound inhibitor into the dilute amyloid peptide dispersions was quantified by UV-Vis between 200-600 nm and MS. This step is denoted as wash 1 in our study. Two additional pellet purification cycles were realized with replacement of the decanted volume each time with 1 mL of fresh DI water (denoted as wash 2 and wash 3 respectively). The inhibitor-containing peptides amyloids were normalized at 400 nm over the respective no inhibitor-containing amyloid peptides at the specific washing step, and the measured inhibitor peak values (at 315 nm and 323 nm) were subtracted from that of the amyloid peptide carriers at the same wavelength and concentration. The amount of inhibitors coordinated with the amyloid peptide carriers was quantified based on a calibration curve by both UV-Vis and MS.
The peak at 315 nm was selected for inhibitor quantification due the absence of peaks at that range for both peptides. […] However, the peak at 315 nm was selected for inhibitor quantification, and the following equation was used for both peptides: A315=A315 ([…]/Donepezil)−A315 ([…])
The peak at 323 nm was used for inhibitor quantification due the absence of peaks at that range for both peptides.

[4] = FYTGAIIGNYF gel 5 mg/mL, by UV-Vis
[5] = YFTGAIIGNFY gel 5 mg/mL, by UV-Vis

SMILES: Nc1c2c(nc3ccccc13)CCCC2 [tacrine]
- capturing efficiency ([1]; […] 5 mg/mL): approximately 8%
- AD compound captured, Wash 1 ([1]; […] gel 5 mg/mL, by MS): 114 ± 6 µM
- AD compound captured, Wash 2 ([1]; […] gel 5 mg/mL, by MS): 102 ± 2 µM
- AD compound captured, Wash 3 ([1]; […] gel 5 mg/mL, by MS): 94 ± 10 µM
- AD compound captured, Wash 1 ([1]; […] gel 5 mg/mL, by UV-Vis): 104 ± 16 µM
- AD compound captured, Wash 2 ([1]; […] gel 5 mg/mL, by UV-Vis): 82 ± 9 µM
- AD compound captured, Wash 3 ([1]; […] gel 5 mg/mL, by UV-Vis): 72 ± 10 µM
- capturing efficiency ([2]; […] 5 mg/mL): approximately 8%
- AD compound captured, Wash 1 ([2]; […] gel 5 mg/mL, by MS): 98 ± 9 µM
- AD compound captured, Wash 2 ([2]; […] gel 5 mg/mL, by MS): 75 ± 4 µM
- AD compound captured, Wash 3 ([2]; […] gel 5 mg/mL, by MS): 63 ± 8 µM
- AD compound captured, Wash 1 ([2]; […] gel 5 mg/mL, by UV-Vis): 90 ± 4 µM
- AD compound captured, Wash 2 ([2]; […] gel 5 mg/mL, by UV-Vis): 80 ± 5 µM
- AD compound captured, Wash 3 ([2]; […] gel 5 mg/mL, by UV-Vis): 73 ± 5 µM
- AD compound captured, Wash 1 ([3]; […] 1 mg/mL, by MS): 29 ± 4 µM
- AD compound captured, Wash 2 ([3]; […] 1 mg/mL, by MS): 24 ± 8 µM
- AD compound captured, Wash 3 ([3]; […] 1 mg/mL, by MS): 23 ± 6 µM
- AD compound captured, Wash 2 ([3]; […] 1 mg/mL, by UV-Vis): 17 ± 4 µM
- AD compound captured, Wash 3 ([3]; […] 1 mg/mL, by UV-Vis): 13 ± 3 µM
- fraction of the 150 μM loaded drug incorporated into the peptide ([3]; […] 1 mg/mL): approximately 1/7

SMILES: COc1cc2c(cc1OC)C(=O)C(CC1CCN(Cc3ccccc3)CC1)C2 (stereo not drawn) [donepezil]
- capturing efficiency ([1]; FYTGAIIGNYF 5 mg/mL): 17%
- AD compound captured, Wash 1 ([1]; FYTGAIIGNYF gel 5 mg/mL, by MS): 163 ± 4 µM
- AD compound captured, Wash 2 ([1]; FYTGAIIGNYF gel 5 mg/mL, by MS): 151 ± 1 µM
- AD compound captured, Wash 3 ([1]; FYTGAIIGNYF gel 5 mg/mL, by MS): 148 ± 3 µM
- AD compound captured, Wash 1 [1, 4]: 187 ± 19 µM
- AD compound captured, Wash 2 [1, 4]: 173 ± 33 µM
- AD compound captured, Wash 3 [1, 4]: 160 ± 33 µM
- capturing efficiency ([2]; YFTGAIIGNFY 5 mg/mL): 14%
- AD compound captured, Wash 1 ([2]; YFTGAIIGNFY gel 5 mg/mL, by MS): 154 ± 7 µM
- AD compound captured, Wash 2 ([2]; YFTGAIIGNFY gel 5 mg/mL, by MS): 141 ± 10 µM
- AD compound captured, Wash 3 ([2]; YFTGAIIGNFY gel 5 mg/mL, by MS): 129 ± 24 µM
- AD compound captured, Wash 1 [2, 5]: 154 ± 11 µM
- AD compound captured, Wash 2 [2, 5]: 135 ± 8 µM
- AD compound captured, Wash 3 [2, 5]: 117 ± 5 µM
- AD compound captured, Wash 1 ([3]; FYTGAIIGNYF 1 mg/mL, by MS): 51 ± 3 µM
- AD compound captured, Wash 2 ([3]; FYTGAIIGNYF 1 mg/mL, by MS): 47 ± 0 µM
- AD compound captured, Wash 3 ([3]; FYTGAIIGNYF 1 mg/mL, by MS): 43 ± 4 µM
- AD compound captured, Wash 1 ([3]; FYTGAIIGNYF 1 mg/mL, by UV-Vis): 33 µM
- AD compound captured, Wash 1 ([3]; FYTGAIIGNYF 1 mg/mL, by UV-Vis, listed as Donepezil): 33 ± 4 µM
- AD compound captured, Wash 2 ([3]; FYTGAIIGNYF 1 mg/mL, by UV-Vis): 28 ± 5 µM
- AD compound captured, Wash 3 ([3]; FYTGAIIGNYF 1 mg/mL, by UV-Vis): 20 ± 5 µM
- fraction of the 150 μM loaded drug incorporated into the peptide ([3]; FYTGAIIGNYF 1 mg/mL): approximately ⅕
